Reference: ChEMBL document CHEMBL5223120 (Bioorg Med Chem Lett, 2022)

Assays:
Format in all cases: ADME, organism-based
Details in all cases: in vivo
[1] = AUC in mouse at 10 mg/kg, po by WinNonlin non-compartmental analysis; set-up: dose 10 mg/kg, route po
[2] = Oral bioavailability in mouse at 10 mg/kg by WinNonlin non-compartmental analysis
[3] = Cmax in mouse at 10 mg/kg, po by WinNonlin non-compartmental analysis; set-up: dose 10 mg/kg, route po

CC(C)c1cnc(-c2cc(Cl)ccc2F)cc1Nc1ccncc1C(=O)NCCN
AUC ([1]; read-out: AUC): 0.93 µM·h
bioavailability [2]: 16%
Cmax [3]: 200 nM

CC(C)c1cnc(-c2cc(Cl)ccc2F)cc1Nc1ccncc1C(=O)N[C@@H](C)CO
AUC [1]: 5.25 µM·h
F ([2]; po, 10 mg/kg): 88%
Cmax [3]: 1570 nM

CC(C)c1cnc(-c2cc(Cl)ccc2F)cc1Nc1ccncc1C(=O)NC[C@H](C)O
AUC ([1]; read-out: AUC): 2.54 µM·h
bioavailability [2]: 33%
Cmax [3]: 1880 nM

CC(C)c1cnc(-c2cc(Cl)ccc2F)cc1Nc1ccncc1C(=O)NCC(N)=O
AUC ([1]; read-out: AUC): 1.47 µM·h
bioavailability [2]: 38%
Cmax [3]: 990 nM

CC(C)c1cnc(-c2cc(Cl)ccc2F)cc1Nc1ccncc1C(=O)NC(CO)CO [PF-06952229]
AUC ([1]; read-out: AUC): 16.2 µM·h
bioavailability [2]: 87%
Cmax [3]: 7070 nM
